# Measurements taken from patent US20060069132A1, “Azolecarboxamide herbicides” (priority 2004, published 2006).
# Tests used:
# rice flatsedge = assay: Test D flooded paddy test; assay type: in vivo, Cyperus iria; settings: 21 days, scale 0 to 100
# From the text: (§1) Three plastic pots (ca. 16-cm diameter) per rate were partially filled with sterilized Tama silt loam soil comprising a 35:50:15 ratio of sand, silt and clay and 2.6% organic matter. Separate plantings for each of the three pots were as follows. Seeds from the U.S. of ducksalad (Heteranthera limosa (Sw.) Willd.), smallflower umbrella sedge (Cyperus difformis L.) and purple redstem (Ammannia coccinea Rottb.), were planted into one 16-cm pot for each rate. Seeds from the U.S. of rice flatsedge (Cyperus iria L.), bearded sprangletop (Leptochloa fascicularis (Lam.) Gray), one stand of 9 or 10 water seeded rice seedlings (Oryza sativa L. cv. ‘Japonica—M202’), and one stand of 6 transplanted rice seedlings (Oryza sativa L. cv. ‘Japonica—M202’) were planted into one 16-cm pot for each rate. Seeds from the U.S. of barnyardgrass (Echinochloa crus-galli (L.) Beauv.), late watergrass (Echinochloa oryzicola Vasinger), early watergrass (Echinochloa oryzoides (Ard.) Fritsch) and junglerice (Echinochloa colona (L.) Link) were planted into one 16-cm pot for each rate. Plantings were sequential so that crop and weed species were at the 2.0 to 2.5-leaf stage at time of treatment.
# (§2) Potted plants were grown in a greenhouse with day/night temperature settings of 29.5/26.7° C., and supplemental balanced lighting was provided to maintain a 16-hour photoperiod. Test pots were maintained in the greenhouse until test completion.
# (§3) At time of treatment, test pots were flooded to 3 cm above the soil surface, treated by application of test compounds directly to the paddy water, and then maintained at that water depth for the duration of the test. Effects of treatments on rice and weeds were visually evaluated by comparison to untreated controls after 21 days. Plant response ratings are reported on a 0 to 100 scale; where 0 is no effect and 100 is complete control. A dash (-) response means no test result.
# purple nutsedge = assay: Test E pre-/postemergence herbicide test; assay type: in vivo, Cyperus rotundus
# In short: (§4)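 Visual 0–100 rating vs untreated controls (0 = no effect, 100 = complete control), 12–14 d after treatment in greenhouse. Pre- and postemergence (2–18 cm, 1- to 4-leaf) applications; compounds in non-phytotoxic solvent with surfactant.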
# broadleaf signalgrass = assay: Test E pre-/postemergence herbicide test; assay type: in vivo, Brachiaria platyphylla
# In short: as §4
# field bindweed = assay: Test E pre-/postemergence herbicide test; assay type: in vivo, Convolvulus arvensis
# In short: as §4
# guineagrass = assay: Test E pre-/postemergence herbicide test; assay type: in vivo, Panicum maximum
# In short: as §4
# quackgrass = assay: Test E pre-/postemergence herbicide test; assay type: in vivo, Elytrigia repens
# In short: as §4
# bermudagrass = assay: Test E pre-/postemergence herbicide test; assay type: in vivo, Cynodon dactylon
# In short: as §4
# Surinam grass = assay: Test E pre-/postemergence herbicide test; assay type: in vivo, Urochloa decumbens
# In short: as §4
# johnsongrass = assay: Test E pre-/postemergence herbicide test; assay type: in vivo, Sorghum halepense
# In short: as §4
# bearded sprangletop = assay: Test D flooded paddy test; assay type: in vivo, Leptochloa fascicularis; settings: 21 days, scale 0 to 100
# From the text: as §1, §2, §3
# itchgrass = assay: Test E pre-/postemergence herbicide test; assay type: in vivo, Rottboellia cochinchinensis
# In short: as §4
# [1] = Postemergence, 500 g ai/ha, scale 0 to 100
# [2] = Postemergence, 250 g ai/ha, scale 0 to 100
# [3] = Preemergence, 62 g ai/ha, scale 0 to 100
# [4] = Preemergence, 125 g ai/ha, scale 0 to 100
# [5] = Preemergence, 250 g ai/ha, scale 0 (no effect) to 100 (complete control)
# [6] = Preemergence, 500 g ai/ha, scale 0 (no effect) to 100 (complete control)
# [7] = postemergence, 125 g ai/ha, scale 0 to 100
structure (smiles),measurement,setting,value
CCNC(=O)c1ccnc(NC(=O)c2cc(C(C)(C)C)nn2CC)c1 [Compound 152],"Plant response rating, Flatsedge, Rice",rice flatsedge; 8 g ai/ha,75
same,"Plant response rating, Flatsedge, Rice",rice flatsedge; 16 g ai/ha,75
same,"Plant response rating, Flatsedge, Rice",rice flatsedge; 32 g ai/ha,75
same,"Plant response rating, Flatsedge, Rice",rice flatsedge; 64 g ai/ha,90
same,"Plant response rating, Flatsedge, Rice",rice flatsedge; 125 g ai/ha,95
same,"Plant response rating, Nutsedge, Purple",purple nutsedge; [1],75
same,"Plant response rating, Nutsedge, Purple",purple nutsedge; [2],60
same,"Plant response rating, Nutsedge, Purple",purple nutsedge; [3],0
same,"Plant response rating, Nutsedge, Purple",purple nutsedge; [4],20
same,"Plant response rating, Nutsedge, Purple",purple nutsedge; [5],50
same,"Plant response rating, Nutsedge, Purple",purple nutsedge; [6],60
same,"Plant response rating, Nutsedge, Purple",purple nutsedge; [7],30
same,"Plant response rating, Signalgrass",broadleaf signalgrass; [1],70
same,"Plant response rating, Signalgrass",broadleaf signalgrass; [2],60
same,"Plant response rating, Signalgrass",broadleaf signalgrass; [3],10
same,"Plant response rating, Signalgrass",broadleaf signalgrass; [4],40
same,"Plant response rating, Signalgrass",broadleaf signalgrass; [5],70
same,"Plant response rating, Signalgrass",broadleaf signalgrass; [6],80
same,"Plant response rating, Signalgrass",broadleaf signalgrass; [7],20
same,"Plant response rating, Bindweed, Field",field bindweed; [1],50
same,"Plant response rating, Bindweed, Field",field bindweed; [2],30
same,"Plant response rating, Bindweed, Field",field bindweed; [3],10
same,"Plant response rating, Bindweed, Field",field bindweed; [4],20
same,"Plant response rating, Bindweed, Field",field bindweed; [5],60
same,"Plant response rating, Bindweed, Field",field bindweed; [6],90
same,"Plant response rating, Bindweed, Field",field bindweed; [7],30
same,"Plant response rating, Guineagrass",guineagrass; [1],80
same,"Plant response rating, Guineagrass",guineagrass; [2],70
same,"Plant response rating, Guineagrass",guineagrass; [3],20
same,"Plant response rating, Guineagrass",guineagrass; [4],50
same,"Plant response rating, Guineagrass",guineagrass; [5],80
same,"Plant response rating, Guineagrass",guineagrass; [6],100
same,"Plant response rating, Quackgrass",quackgrass; [1],80
same,"Plant response rating, Quackgrass",quackgrass; [2],80
same,"Plant response rating, Quackgrass",quackgrass; [3],10
same,"Plant response rating, Quackgrass",quackgrass; [4],20
same,"Plant response rating, Quackgrass",quackgrass; [5],50
same,"Plant response rating, Quackgrass",quackgrass; [6],60
same,"Plant response rating, Quackgrass",quackgrass; [7],70
same,"Plant response rating, Bermudagrass",bermudagrass; [1],75
same,"Plant response rating, Bermudagrass",bermudagrass; [2],75
same,"Plant response rating, Bermudagrass",bermudagrass; [3],70
same,"Plant response rating, Bermudagrass",bermudagrass; [4],90
same,"Plant response rating, Bermudagrass",bermudagrass; [5],95
same,"Plant response rating, Bermudagrass",bermudagrass; [6],95
same,"Plant response rating, Bermudagrass",bermudagrass; [7],40
same,"Plant response rating, Surinam Grass",Surinam grass; [1],80
same,"Plant response rating, Surinam Grass",Surinam grass; [2],60
same,"Plant response rating, Surinam Grass",Surinam grass; [3],20
same,"Plant response rating, Surinam Grass",Surinam grass; [4],50
same,"Plant response rating, Surinam Grass",Surinam grass; [6],80
same,"Plant response rating, Surinam Grass",Surinam grass; [7],30
same,"Plant response rating, Johnsongrass",johnsongrass; [1],95
same,"Plant response rating, Johnsongrass",johnsongrass; [2],80
same,"Plant response rating, Johnsongrass",johnsongrass; [3],30
same,"Plant response rating, Johnsongrass",johnsongrass; [4],50
same,"Plant response rating, Johnsongrass",johnsongrass; [5],80
same,"Plant response rating, Johnsongrass",johnsongrass; [6],85
same,"Plant response rating, Johnsongrass",johnsongrass; [7],70
same,"Plant response rating, Sprangletop, Bearded",bearded sprangletop; 8 g ai/ha,30
same,"Plant response rating, Sprangletop, Bearded",bearded sprangletop; 16 g ai/ha,30
same,"Plant response rating, Sprangletop, Bearded",bearded sprangletop; 32 g ai/ha,30
same,"Plant response rating, Sprangletop, Bearded",bearded sprangletop; 64 g ai/ha,35
same,"Plant response rating, Sprangletop, Bearded",bearded sprangletop; 125 g ai/ha,40
same,"Plant response rating, Itchgrass",itchgrass; [1],75
same,"Plant response rating, Itchgrass",itchgrass; [2],75
same,"Plant response rating, Itchgrass",itchgrass; [3],20
same,"Plant response rating, Itchgrass",itchgrass; [4],60
same,"Plant response rating, Itchgrass",itchgrass; [5],75
same,"Plant response rating, Itchgrass",itchgrass; [6],80
same,"Plant response rating, Itchgrass",itchgrass; [7],60
CCc1nc(C(C)(C)C)sc1C(=O)Nc1cccc(C(=O)NCC2CC2)n1 [Compound 215],"Plant response rating, Flatsedge, Rice",rice flatsedge; 125 g ai/ha,0
same,"Plant response rating, Flatsedge, Rice",rice flatsedge; 250 g ai/ha,60
same,"Plant response rating, Flatsedge, Rice",rice flatsedge; 500 g ai/ha,60
same,"Plant response rating, Flatsedge, Rice",rice flatsedge; 750 g ai/ha,80
same,"Plant response rating, Flatsedge, Rice",rice flatsedge; 1000 g ai/ha,90
same,"Plant response rating, Sprangletop, Bearded",bearded sprangletop; 125 g ai/ha,20
same,"Plant response rating, Sprangletop, Bearded",bearded sprangletop; 250 g ai/ha,20
same,"Plant response rating, Sprangletop, Bearded",bearded sprangletop; 500 g ai/ha,20
same,"Plant response rating, Sprangletop, Bearded",bearded sprangletop; 750 g ai/ha,20
same,"Plant response rating, Sprangletop, Bearded",bearded sprangletop; 1000 g ai/ha,20
